Experimental data published in patent US9475839B2, “Peptide-based inhibitor of interleukin-10 or interferon-gamma signaling” (THE UNITED STATES OF AMERICA, AS REPRESENTED BY THE …, priority 2010, dated 2016).
Where two headings read alike, the source gives them in different places. Positions of bridges follow the written chain, without caps; N, C: chain ends. Non-standard residues stand in square brackets, D forms with d. Residues, ends and D or L forms follow the SMILES beside them. Chains are numbered I, II in the order given. ξ: configuration not given here. *: point of attachment. Palmitoyl = CCCCCCCCCCCCCCCC(=O)*; PEG4 = NCCOCCOCCOCCOCCC(=O)O; Nle = CCCC[C@H](N)C(=O)O; Aib = CC(C)(N)C(=O)O; ξK = NCCCCC(N)C(=O)O

Tested on: mouse mast MC/9 cells
Assay: Inhibition of IL10-dependent growth of MC/9 cells, MTT assay, 48 hours
Type: cell-based
[1] = Table 4, compounds mimicking conserved regions of IL10R1, cell line not given, read-out: GI50

Structure (SMILES): CCCC[C@H](NC(=O)[C@H](Cc1ccc(O)cc1)NC(=O)[C@H](C)NC(=O)[C@H](CCC(=O)O)NC(=O)[C@@H](NC(=O)[C@H](Cc1ccc(O)cc1)NC(=O)[C@H](CC(N)=O)NC(=O)[C@@H](NC(=O)[C@H](Cc1ccccc1)NC(=O)[C@@H](NC(=O)[C@H](CC(=O)O)NC(=O)[C@H](Cc1ccccc1)NC(=O)[C@H](CCC(=O)O)NC(=O)[C@H](CO)NC(=O)C(C)(C)NC(C)=O)[C@@H](C)CC)[C@@H](C)CC)[C@@H](C)CC)C(=O)NCCOCCOCCOCCOCCC(=O)NCCCCC(NC(=O)CCOCCOCCOCCOCCNC(=O)[C@H](CCCC)NC(=O)[C@H](Cc1ccc(O)cc1)NC(=O)[C@H](C)NC(=O)[C@H](CCC(=O)O)NC(=O)[C@@H](NC(=O)[C@H](Cc1ccc(O)cc1)NC(=O)[C@H](CC(N)=O)NC(=O)[C@@H](NC(=O)[C@H](Cc1ccccc1)NC(=O)[C@@H](NC(=O)[C@H](CC(=O)O)NC(=O)[C@H](Cc1ccccc1)NC(=O)[C@H](CCC(=O)O)NC(=O)[C@H](CO)NC(=O)C(C)(C)NC(C)=O)[C@@H](C)CC)[C@@H](C)CC)[C@@H](C)CC)C(N)=O (some centres unmarked) [IL10-HF-1] (I: Ac-[Aib]SEFDIFINYIEAY[Nle][PEG4][ξK]-NH2 / II: Ac-[Aib]SEFDIFINYIEAY[Nle][PEG4]; amide I:17-II:C)
- GI50 (FIG. 2, 48 hours exposure, MTT assay, read-out: GI50, IL10 dependent growth of MC/9): 50 nM

Structure (SMILES): CCCCCCCCCCCCCCCC(=O)NCCCC[C@H](N)C(=O)N[C@@H](CC(C)C)C(=O)N[C@H](C(=O)N[C@H](C(=O)N[C@@H](CC(C)C)C(=O)N1CCC[C@H]1C(=O)N[C@@H](CC(C)C)C(=O)N[C@H](C(=O)N[C@@H](CO)C(=O)N[C@@H](CO)C(=O)N[C@@H](CC(C)C)C(=O)N[C@@H](CCC(N)=O)C(N)=O)[C@@H](C)CC)[C@@H](C)O)C(C)C [IL10R1-27, ε-Pal-KLVTLPLISSLQ-NH2] (H-K(Palmitoyl)LVTLPLISSLQ-NH2; N-terminus assumed)
- GI50 (48 h): > 5000 nM

Structure (SMILES): CCCCCCCCCCCCCCCC(=O)NCCCC[C@@H](NC(=O)[C@@H](CC(C)C)NC(=O)[C@@H](Cc1c[nH]cn1)NC(=O)CNC(=O)[C@@H](CO)NC(=O)[C@H](NC(=O)[C@@H](CC(=O)O)NC(=O)[C@@H](CO)NC(=O)CNC(=O)[C@@H](Cc1ccccc1)NC(=O)CNC(=O)[C@@H](CO)NC(=O)[C@H](NC(=O)[C@@H](CCCCN)NC(=O)[C@H]1CCCN1C(=O)[C@@H](CO)NC(=O)[C@@H](CC(C)C)NC(=O)[C@@H](CCC(N)=O)NC(=O)[C@H](NC(=O)[C@@H](CCC(=O)O)NC(=O)[C@@H](CCC(=O)O)NC(C)=O)[C@H](C)O)[C@H](C)O)[C@H](C)O)C(N)=O [IL10R1-14] (Ac-[dE][dE][dT][dQ][dL][dS][dP][dK][dT][dS]G[dF]G[dS][dD][dT][dS]G[dH][dL][dK](Palmitoyl)-NH2; C-terminus assumed)
- GI50 [1]: 1000 nM

Structure (SMILES): CCCCCCCCCCCCCCCC(=O)NCCCC[C@H](N)C(=O)N[C@@H](CC(C)C)C(=O)N[C@H](C(=O)N[C@H](C(=O)N[C@@H](CC(C)C)C(=O)N1CCC[C@H]1C(=O)N[C@@H](CC(C)C)C(=O)N[C@H](C(=O)N[C@@H](CO)C(=O)N[C@@H](CO)C(=O)N[C@@H](CC(C)C)C(=O)N[C@@H](CCC(N)=O)C(=O)N[C@@H](CO)C(=O)N[C@@H](CO)C(=O)N[C@@H](CCC(=O)O)C(N)=O)[C@@H](C)CC)[C@@H](C)O)C(C)C [IL10R1-7, ε-Pal-KLVTLPLISSLQSSE-NH2] (H-K(Palmitoyl)LVTLPLISSLQSSE-NH2; N-terminus assumed)
- GI50 (48 h): 5000 nM

Structure (SMILES): CCCCCCCCCCCCCCCC(=O)NCCCC[C@@H](N)C(=O)N[C@@H](C(=O)N[C@H](CCC(N)=O)C(=O)N[C@H](CC(C)C)C(=O)N[C@H](CO)C(=O)N1CCC[C@@H]1C(=O)N[C@H](CCCCN)C(=O)N[C@@H](C(=O)N[C@H](CO)C(=O)NCC(=O)N[C@H](Cc1ccccc1)C(=O)NCC(=O)N[C@H](CO)C(=O)N[C@H](CC(=O)O)C(=O)N[C@@H](C(=O)N[C@H](CO)C(=O)NCC(=O)N[C@H](Cc1c[nH]cn1)C(=O)N[C@H](CC(C)C)C(N)=O)[C@H](C)O)[C@H](C)O)[C@H](C)O [IL10R1-17, ε-Pal-KTQLSPKTSGFGSDTSGHL-NH2] (H-[dK](Palmitoyl)[dT][dQ][dL][dS][dP][dK][dT][dS]G[dF]G[dS][dD][dT][dS]G[dH][dL]-NH2; N-terminus assumed)
- GI50 [1]: > 5000 nM
